Experimental data reported in PMC12472352, “The Activation of Cytochrome P450 2C9 Is Facilitated by the Coenzyme Forms of Vitamin B2” (Molecules, 2025).

Legend:
[1] = biological target: T1, cytochrome P450 2C9 (CYP2C9) (Homo sapiens, UniProt P11712); assay: amperometric titration (KM) on CYP2C9 + FMN electrode; […]'-hydroxydiclofenac formation by square-wave voltammetry; assay type: biochemical
[2] = biological target: T1, cytochrome P450 2C9 (CYP2C9); assay: UV-vis absorption spectral titration (Soret peak) of purified recombinant CYP2C9; also electrochemical activation; assay type: binding
[3] = biological target: T1, cytochrome P450 2C9 (CYP2C9); assay: electrochemical diclofenac […]'-hydroxylation by purified CYP2C9 with FMN ([…]); relative activity […]; assay type: biochemical

T1 sequence (P11712 whole entry): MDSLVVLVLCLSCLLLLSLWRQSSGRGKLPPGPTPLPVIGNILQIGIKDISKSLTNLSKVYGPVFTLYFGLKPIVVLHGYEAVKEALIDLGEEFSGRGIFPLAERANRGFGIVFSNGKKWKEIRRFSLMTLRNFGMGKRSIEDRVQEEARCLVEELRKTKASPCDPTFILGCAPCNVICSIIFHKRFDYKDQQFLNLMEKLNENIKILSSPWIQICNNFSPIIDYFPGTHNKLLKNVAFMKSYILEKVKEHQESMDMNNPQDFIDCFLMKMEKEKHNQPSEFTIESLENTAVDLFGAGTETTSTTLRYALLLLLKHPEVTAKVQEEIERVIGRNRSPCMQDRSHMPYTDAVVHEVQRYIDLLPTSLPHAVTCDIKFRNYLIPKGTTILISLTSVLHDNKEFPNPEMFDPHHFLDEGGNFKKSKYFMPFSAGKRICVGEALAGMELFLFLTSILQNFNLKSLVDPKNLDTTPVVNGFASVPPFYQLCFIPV

O=C(O)Cc1ccccc1Nc1c(Cl)cccc1Cl [diclofenac, 2-[2-(2,6-dichloroanilino)-phenyl]acetic acid]
KM, M [1]: (5.49 ± 0.52) ×10^−5 M

Cc1cc2nc3c(=O)[nH]c(=O)nc-3n(C[C@H](O)[C@H](O)[C@H](O)COP(=O)(O)OP(=O)(O)OC[C@H]3O[C@@H](n4cnc5c(N)ncnc54)[C@H](O)[C@@H]3O)c2cc1C [FAD]
Kd [2]: 174 ± 52 µM

Cc1cc2nc3c(=O)[nH]c(=O)nc-3n(C[C@H](O)[C@H](O)[C@H](O)COP(=O)(O)O)c2cc1C [FMN]
Relative Activity, % [3]: 113 ± 6%
